“And” between values parts separate entries of the source, which are not always exact repeats. Equal entries are not always repeated.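 All cell lines were grown in 96-well plates and treated with compound for 48 hours. Abbreviation: GI50, concentration required for 50% inhibition of growth. TGI denotes the concentration required for complete inhibition of growth.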
What was measured:
Test in all cases: inhibition of tumour cell growth, NCI panel, 48 h
[1] = test system: A498 renal
[2] = test system: DU-145 prostate
[3] = test system: HCT-15 colon
[4] = test system: HL-60(TB) leukemia
[5] = test system: NCI/ADR-RES ovarian
[6] = test system: RPMI-8226 leukemia
[7] = test system: SF-295 CNS
[8] = test system: SF-539 CNS
[9] = test system: SNB-75 CNS
[10] = test system: T-47D breast

Structure (SMILES)	GI50 [1]	TGI [1]	GI50 [2]	TGI [2] [µM]	GI50 [3]	TGI [3] [µM]	GI50 [4]	TGI [4]	GI50 [5]	TGI [5] [µM]	GI50 [6]	TGI [6] [µM]	GI50 [7]	TGI [7]	GI50 [8]	TGI [8]	GI50 [9] [µM]	TGI [9] [µM]	GI50 [10]	TGI [10] [µM]
CS(=O)(=O)Nc1ccc(Nc2c3ccccc3nc3cc(Cl)ccc23)cc1	1.15 µM	7.22 µM	0.646 µM	14	1.37 µM	14.2	0.843 µM	24.6 µM	3.93 µM	37.5	2.56 µM	25.6	1.07 µM	15.3 µM	1.18 µM	13.5 µM	1.29	15.9	0.987 µM	13.3
COc1cc2nccc(Oc3ccc(NC(=O)C4(C(=O)Nc5ccc(F)cc5)CC4)cc3)c2cc1OC	1.2 µM and 0.429 µM	> 10 µM and 3.43 µM	> 10 µM and 5.47 µM	> 100	> 10 µM and 3.94 µM	> 100	> 10 µM and 3.87 µM	> 10 µM and 21.6 µM	> 10 µM and 3.43 µM	> 100	> 10 µM and 4.09 µM	> 57.7	0.406 µM and 0.289 µM	> 10 µM and 4.95 µM	1.13 µM and 1.42 µM	> 10 µM and 12.2 µM	0.27	8.14	> 10 µM and 4.36 µM	> 100
CCc1c[nH]c2ncnc(N3CC[C@](N)(CNC(=O)c4ccc(F)cc4F)C3)c12	0.245 µM	1.73 µM	18.3 µM	> 100	15.5 µM	> 100	56.2 µM	> 100 µM	> 61.2 µM	> 100	20.8 µM	> 100	1 µM	> 100 µM	0.381 µM	29.4 µM	0.0768	7.97	0.203 µM	11.1
c1csc(-c2[nH]nc3c2CCc2ccccc2-3)c1	14.3 µM	32.4 µM	23.4 µM	71.3	0.289 µM	18.6	20.5 µM	47.3 µM	17.7 µM	49.3	15.6 µM	55.4	16.4 µM	38.7 µM	12.9 µM	29 µM	4.25	35	0.17 µM	0.515
O=C(Nc1cccc(C(F)(F)F)c1)Nc1cc(S(=O)(=O)NC2CC2)ccc1-c1ccsc1	2.45 µM	7.31 µM	5.41 µM	20.3	3.27 µM	12.8	3.01 µM	8.03 µM	6.05 µM	26.9	2.57 µM	8.22	3.16 µM	11.8 µM	4.22 µM	16.4 µM	3.45	16.4	3.16 µM	15
CC(C)c1nc(Cl)c(Cl)c(Cl)n1		52 µM		20.3		17.7		5.4 µM		55.8		14.7		29 µM		25.2 µM		25.8		42.7
O=C(COC(=O)[C@H](C[Se][Se]C[C@H](NC(=O)c1ccc(Br)cc1F)C(=O)OCC(=O)c1ccc(F)cc1)NC(=O)c1ccc(Br)cc1F)c1ccc(F)cc1	0.306 µM	1.04 µM	0.385 µM	1.08	1.34 µM	4.03	0.425 µM	> 100 µM	0.821 µM	2.39	0.132 µM	0.593	0.0511 µM	0.18 µM	0.684 µM	1.8 µM	0.354	0.964	1.41 µM	4.08
COc1cc2c(cc1OCCCN1CCN(CCCn3c4ccccc4c4ccccc43)CC1)N=C[C@@H]1CCCN1C2=O	0.158 µM	0.35 µM	0.0335 µM	1.14	0.623 µM	2.15	0.0249 µM		1.37 µM	4.93	0.0106 µM	0.0483	< 0.0359 µM	0.235 µM	0.225 µM	0.49 µM	< 0.0395	0.102	0.206 µM	0.868
COc1ccc(C[C@H](N)C(=O)N[C@@H]2[C@@H](CO)OC(n3cnc4c(N(C)C)ncnc43)[C@@H]2O)cc1 (some centres undefined)	0.189 µM	1.09 µM	0.458 µM	2.53	6.63 µM	29.9	0.454 µM	1.7 µM	42.7 µM	50	0.292 µM	2.04	0.655 µM	2.21 µM	0.435 µM	1.95 µM	0.143	1.23	0.137 µM	0.565
O=C1C(=O)c2c(ccc3ccccc23)-c2ccccc21	10.4 µM	26 µM	1.4 µM	2.73	1.02 µM	6.43	2.83 µM	5.85 µM	1.19 µM	5.88	0.752 µM	5.26	1.92 µM	4.6 µM	1.89 µM	4.07 µM	1.83	4.03	1.75 µM	3.96
CC(C)(CCc1nc2ccccc2[nH]1)C(=O)O		> 100 µM		> 100		> 100		> 100 µM		> 100		> 100		> 100 µM		> 100 µM		> 100		> 100
O=C1OC(c2ccccc2)=N/C1=C\c1ccc(N(CCCl)CCCl)cc1		> 100 µM		> 100		> 100		> 100 µM		> 100		> 100		> 100 µM		> 100 µM		> 100		> 84.8
CN(C)C(=O)c1cc2cnc(Nc3ccc(N4CCNCC4)cn3)nc2n1C1CCCC1	11.8 µM	30.9 µM	23.5 µM	> 100	16.6 µM	> 100	1.74 µM	28.1 µM	37.8 µM	> 100	2.62 µM	30	13.1 µM	42 µM	15.7 µM	30.8 µM	10.2	22	12.9 µM	91.8

Reference: PubChem BioAssay (NCI)
